The source of these data is patent US20230329236A1, “HERBICIDAL PYRIMIDINE DERIVATIVES” (MoA Technology Limited, priority 2020, published 2023).

Common to all, as to details: 336 h, Table 3, post-emergence, 14±1 days post application
The test system of test [1] is Lolium multiflorum (LOLMU). Kind of test: Post-emergence glasshouse test, visual injury, LOLMU. The test is classed as in vivo. The method, boiled down: (§1)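 Post-emerg. spray, BBCH 12-14; acetone/water 50:50 + 0.5% Tween 20; rate as g a.i./ha. Glasshouse, sandy loam soil. Read: % visual injury vs untreated, 14±1 d after application.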
For test [2], the system named is Echinochloa crus-gaffi (ECHCG). Briefly: Post-emergence glasshouse test, visual injury, ECHCG. Type of test: in vivo, Echinochloa crus-galli. The procedure, abridged:
as §1

In another test the test system is Veronica persica (VERPE). Kind of test: Post-emergence glasshouse test, visual injury, VERPE. Type of test: in vivo. The procedure, abridged: as §1
Test [3] relates to Amaranthus retroflexus (AMARE). Kind of test: Post-emergence glasshouse test, visual injury, AMARE. The test is classed as in vivo. The procedure, abridged: as §1

As a reminder, the pest or weed control is how far the test organism was held down.

For the compound `Cc1cc(-c2cnc(NCc3cccs3)nc2C2CC2)on1` [Compound 80], the pest or weed control at 500 g/ha in test [1] amounted to 30%; in test [2], 80%; in the test with Veronica persica (VERPE), 60%; in test [3], 60%.
As to `Cc1cc(-c2cnc(N(C)C3CCCC3)nc2C(C)C)on1` [Compound 9], the pest or weed control at 125 g/ha in test [1] (125 g/ha) is 60%; in test [2] (125 g/ha), 60%; with Veronica persica (VERPE) (125 g/ha) it was 80%; in test [3] (125 g/ha) it was 95%.
Take `Cc1cc(-c2cnc(NC3CCC3)nc2C(C)C)on1` [Compound 14]: the pest or weed control at 500 g/ha was 50% in test [1], 100% in test [2], 100% in the test with Veronica persica (VERPE) and 100% in test [3].
Turning to `Cc1cc(-c2cnc(NCc3ccc4c(c3)OCO4)nc2C(C)(C)C)on1` [Compound 54], the pest or weed control at 500 g/ha in test [1] was found to be 5%; in test [2] it was 40%; in the test on Veronica persica (VERPE), 99%; in test [3] it was 40%.
